Here are results for 32 compounds from US10065970B2 (Genentech, Inc., priority 2015, dated 2018).

Each structure is given as a SMILES string. pKi: −log10 of the molar value. A value given as a limit tells only on which side of the number the result lay.

PI3Kα (alpha), sequence (P42336 whole entry): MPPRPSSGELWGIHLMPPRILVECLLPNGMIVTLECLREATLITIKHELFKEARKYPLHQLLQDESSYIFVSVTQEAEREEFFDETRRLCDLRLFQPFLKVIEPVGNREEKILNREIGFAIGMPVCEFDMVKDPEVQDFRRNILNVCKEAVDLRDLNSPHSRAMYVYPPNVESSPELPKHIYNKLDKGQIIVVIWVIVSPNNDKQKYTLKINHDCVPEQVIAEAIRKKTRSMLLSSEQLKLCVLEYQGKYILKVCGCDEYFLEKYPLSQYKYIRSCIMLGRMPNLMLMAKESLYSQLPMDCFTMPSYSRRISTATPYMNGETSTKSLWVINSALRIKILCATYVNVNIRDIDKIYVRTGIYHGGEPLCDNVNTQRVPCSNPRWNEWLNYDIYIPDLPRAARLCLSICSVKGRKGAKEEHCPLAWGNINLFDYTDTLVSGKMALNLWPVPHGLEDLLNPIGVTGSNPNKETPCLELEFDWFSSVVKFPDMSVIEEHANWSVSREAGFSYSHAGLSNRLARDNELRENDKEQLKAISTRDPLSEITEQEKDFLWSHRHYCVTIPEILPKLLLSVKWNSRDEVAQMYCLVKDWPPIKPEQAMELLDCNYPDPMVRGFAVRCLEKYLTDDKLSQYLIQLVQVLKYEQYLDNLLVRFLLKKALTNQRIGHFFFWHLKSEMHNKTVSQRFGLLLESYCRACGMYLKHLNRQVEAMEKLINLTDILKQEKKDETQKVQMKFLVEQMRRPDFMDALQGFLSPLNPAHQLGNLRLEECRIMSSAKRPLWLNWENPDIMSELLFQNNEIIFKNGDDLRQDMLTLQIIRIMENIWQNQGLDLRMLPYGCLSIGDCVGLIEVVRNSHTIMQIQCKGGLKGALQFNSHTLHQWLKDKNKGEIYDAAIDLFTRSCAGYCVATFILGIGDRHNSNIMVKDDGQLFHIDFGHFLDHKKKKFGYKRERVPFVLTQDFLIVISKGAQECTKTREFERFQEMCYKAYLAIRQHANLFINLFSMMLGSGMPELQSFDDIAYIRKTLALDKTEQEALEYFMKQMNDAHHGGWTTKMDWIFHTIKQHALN
PI3Kα (alpha), sequence (P27986 whole entry partner): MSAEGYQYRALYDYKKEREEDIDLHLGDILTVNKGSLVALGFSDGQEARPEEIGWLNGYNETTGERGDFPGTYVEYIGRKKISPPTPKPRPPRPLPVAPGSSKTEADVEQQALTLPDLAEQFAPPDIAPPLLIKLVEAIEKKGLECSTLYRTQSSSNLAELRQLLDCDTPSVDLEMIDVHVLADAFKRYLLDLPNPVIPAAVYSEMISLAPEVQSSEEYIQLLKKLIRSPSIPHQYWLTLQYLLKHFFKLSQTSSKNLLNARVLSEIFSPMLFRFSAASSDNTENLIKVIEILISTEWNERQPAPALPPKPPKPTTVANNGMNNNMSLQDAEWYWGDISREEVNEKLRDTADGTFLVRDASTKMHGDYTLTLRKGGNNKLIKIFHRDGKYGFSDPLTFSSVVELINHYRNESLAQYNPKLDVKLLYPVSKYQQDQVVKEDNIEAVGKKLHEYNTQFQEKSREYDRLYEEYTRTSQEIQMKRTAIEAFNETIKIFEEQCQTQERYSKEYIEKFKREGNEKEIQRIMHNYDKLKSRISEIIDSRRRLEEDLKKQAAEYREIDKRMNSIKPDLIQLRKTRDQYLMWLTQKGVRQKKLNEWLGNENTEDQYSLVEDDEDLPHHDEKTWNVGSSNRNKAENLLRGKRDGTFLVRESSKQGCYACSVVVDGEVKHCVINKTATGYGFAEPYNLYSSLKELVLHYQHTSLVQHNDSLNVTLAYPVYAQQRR

The target of the assay is PI3Kα (alpha) (Homo sapiens (Human), UniProt P42336). Put plainly: p110α (alpha) PI3K Binding Assay (ADP-Glo lipid kinase reaction). The assay is classed as biochemical. To be noted: PI3K alpha 0.2 nM, ATP 40 μM, PIP2:3PS 50 μM, 120 min, room temperature; Ki by Morrison Equation; read-out: PI3Kα-(alpha) ATP (Ki) micromolar. The method, boiled down:
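Enzyme with PIP2:3PS lipid substrate and ATP/MgCl2 in 50 mM HEPES, 50 mM NaCl, 3 mM MgCl2, 0.01% BSA, 1% DMSO, 120 min at room temperature. ADP formed detected by ADP-Glo luminescence. Ki from 10-point dose-response curves via the Morrison equation.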
As usually defined, the pKi is −log10 of the Ki, conventionally taken in molar units. For `NC(=O)[C@@H](Nc1cc2c3c(c1)nc(-c1cncs1)n3CCCO2)C1CC1` [Example 136, (S)-2-Cyclopropyl-2-((1-(thiazol-5-yl)-8,9-dihydro-7H-6-oxa-2,9a-diazabenzo[cd]azulen-4-yl)amino)acetamide], the pKi was 7.12.

As for `NC(=O)[C@@H]1CCCN1c1cc2c3c(nc(-c4ccc5oc(N)nc5c4)n3CCCO2)c1F` [Example 194, (S)-1-(1-(2-Aminobenzo[d]oxazol-5-yl)-3-fluoro-8,9-dihydro-7H-6-oxa-2,9a-diazabenzo[cd]azulen-4-yl)pyrrolidine-2-carb oxamide], the pKi was 10.59.

`C[C@H](C(N)=O)n1cc(-c2cc3c4c(c2)nc(-c2ccc5oc(N)nc5c2)n4CCCO3)cn1` [Example 218, (R)-2-(4-(1-(2-Aminobenzo[d]oxazol-5-yl)-8,9-dihydro-7H-6-oxa-2,9a-diazabenzo[cd]azulen-4-yl)-1H-pyrazol-1-yl)propanamide]: the pKi is 9.84.

In the case of `NC(=O)[C@@H](Nc1cc2c3c(c1)nc(-c1ccc4cncnc4c1)n3CCCO2)C1CC1` [Example 116, (S)-2-Cyclopropyl-2-((1-(quinazolin-7-yl)-8,9-dihydro-7H-6-oxa-2,9a-diazabenzo [cd]azulen-4-yl)amino) acetamide], the pKi is 7.72.

As for `NC(=O)[C@@H](Nc1cc2c3c(c1)nc(-c1ccn4ncnc4c1)n3CCCO2)C1CC1` [Example 132, (S)-2-((1-([1,2,4]Triazolo[1,5-a]pyridin-7-yl)-8,9-dihydro-7H-6-oxa-2,9a-diazabenzo[cd]azulen-4-yl)amino)-2-cyclopropylacetamide], the pKi is 8.80.

As to `NC(=O)[C@@H](Oc1cc2c3c(c1)nc(-c1cc(F)c4nc(N)sc4c1)n3CCCCO2)C1CC1` (single isomer, unassigned) [Example 280], the pKi is greater than 10.70.

In the case of `NC(=O)[C@@H](Nc1cc2c3c(c1)nc(-c1ccc4nccnc4c1)n3CCCO2)C1CC1` [Example 117, (S)-2-Cyclopropyl-2-((1-(quinoxalin-6-yl)-8,9-dihydro-7H-6-oxa-2,9a-diazabenzo[cd]azulen-4-yl)amino)acetamide], the pKi was 8.93.

For the compound `C[C@H]1CCN(c2cc3c4c(c2)nc(-c2ccc5oc(N)nc5c2)n4CCCCO3)[C@@H]1C(N)=O` [Example 309, (2S,3S)-1-(1-(2-Aminobenzo[d]oxazol-5-yl)-7,8,9,10-tetrahydro-6-oxa-2,10a-diazacycloocta[cd]inden-4-yl)-3-methylpyrrolidine-2-carboxamide], the pKi is 10.40.

As to `NC(=O)[C@@H](Nc1cc2c3c(c1)nc(-c1ccc(-c4nc[nH]n4)cc1)n3CCCO2)C1CC1` [Example 190, (S)-2-((1-(4-(1H-1,2,4-Triazol-3-yl)phenyl)-8,9-dihydro-7H-6-oxa-2,9a-diazabenzo[cd]azulen-4-yl)amino)-2-cyclopropylacetamide], the pKi is 9.82.

As to `NC(=O)[C@@H]1CCCN1c1cc2c3c(c1)nc(-c1ccc(N4CCNC4=O)cc1)n3CCCO2` [Example 234, (S)-1-(1-(4-(2-Oxoimidazolidin-1-yl)phenyl)-8,9-dihydro-7H-6-oxa-2,9a-diazabenzo[cd]azulen-4-yl)pyrrolidine-2-carboxamide], the pKi is 7.08.

Take `COc1ccc(-c2nc3cc(N[C@@H](C)C(N)=O)cc4c3n2CCCO4)cn1` [Example 111, (S)-2-((1-(6-Methoxypyridin-3-yl)-8,9-dihydro-7H-6-oxa-2,9a-diazabenzo[cd]azulen-4-yl)amino)propanamide]: the pKi was 7.94.

For the compound `Cc1ccncc1-c1nc2cc(N[C@H](C(N)=O)C3CC3)cc3c2n1CCCO3` [Example 122, (S)-2-Cyclopropyl-2-((1-(4-methylpyridin-3-yl)-8,9-dihydro-7H-6-oxa-2,9a-diazabenzo[cd]azulen-4-yl)amino)acetamide], the pKi was 6.53.

For the compound `CC[C@@H](C(N)=O)n1cc(-c2cc3c4c(c2)nc(-c2ccc5oc(N)nc5n2)n4CCCCO3)cn1` (single isomer, unassigned) [Example 301], the pKi was 10.42.

Regarding `NC(=O)[C@@H](Nc1cc2c3c(c1)nc(-c1cnn(CCO)c1)n3CCCO2)C1CC1` [Example 211, (S)-2-Cyclopropyl-2-((1-(1-(2-hydroxyethyl)-1H-pyrazol-4-yl)-8,9-dihydro-7H-6-oxa-2,9a-diazabenzo[cd]azulen-4-yl)amino)acetamide], the pKi was 6.09.

`NC(=O)[C@@H](Nc1cc2c3c(c1)nc(-c1ccc4nc(N)nn4c1)n3CCCO2)C1CC1` [Example 201, (S)-2-((1-(2-Amino-[1,2,4]triazolo[1,5-a]pyridin-6-yl)-8,9-dihydro-7H-6-oxa-2,9a-diazabenzo[cd]azulen-4-yl)amino)-2-cyclopropylacetamide]: the pKi is 9.14.

`NC(=O)[C@H](Oc1cc2c3c(c1)nc(-c1cc(F)c4nc(N)sc4c1)n3CCCCO2)C1CC1` (single isomer, unassigned) [Example 279]: the pKi is 8.99.

Consider `Nc1nc2cc(-c3nc4cc(N[C@H]5C[C@@H](F)C5)cc5c4n3CCCO5)ccc2o1` (single isomer, unassigned) [Example 203, 1-(2-Aminobenzo[d]oxazol-5-yl)-N-((1s,3s)-3-fluorocyclobutyl)-8,9-dihydro-7H-6-oxa-2,9a-diazabenzo[cd]azulen-4-amine], for which the pKi is 8.86.

On to `C[C@H](Nc1cc2c3c(c1)nc(-c1ccncn1)n3CCCO2)C(N)=O` [Example 109, (S)-2-((1-(pyrimidin-4-yl)-8,9-dihydro-7H-6-oxa-2,9a-diazabenzo[cd]azulen-4-yl)amino)propanamide], for which the pKi was 7.61.

Consider `C[C@H](Oc1cc2c3c(c1)nc(-c1cc(F)c4oc(N)nc4c1)n3CCCO2)C(N)=O` [Example 258, (S)-2-((1-(2-Amino-7-fluorobenzo[d]oxazol-5-yl)-8,9-dihydro-7H-6-oxa-2,9a-diazabenzo[cd]azulen-4-yl)oxy)propanamide], for which the pKi is 10.05.

As for `C[C@H](Oc1cc2c3c(c1)nc(-c1ccc4nc(N)sc4c1F)n3CCCCO2)C(N)=O` (single isomer, unassigned) [Example 286], the pKi is 10.14.

Regarding `CC[C@H](Oc1cc2c3c(c1)nc(-c1ccc4oc(N)nc4c1)n3CCCCO2)C(N)=O` [Example 271, (S)-2-((1-(2-Aminobenzo[d]oxazol-5-yl)-7,8,9,10-tetrahydro-6-oxa-2,10a-diazacycloocta[cd]inden-4-yl)oxy)butanamide], the pKi was greater than 10.70.

Take `NC(=O)[C@@H](Nc1cc2c3c(c1)nc(N1CCOCC1)n3CCCO2)C1CC1` [Example 141, (S)-2-Cyclopropyl-2-((1-morpholino-8,9-dihydro-7H-6-oxa-2,9a-diazabenzo[cd]azulen-4-yl)amino)acetamide]: the pKi is 6.13.

In the case of `Cn1cc(-c2cc3c4c(c2)nc(-c2ccc5oc(N)nc5c2)n4CCCO3)cn1` [Example 153, 5-(4-(1-Methyl-1H-pyrazol-4-yl)-8,9-dihydro-7H-6-oxa-2,9a-diazabenzo[cd]azulen-1-yl)benzo[d]oxazol-2-amine], the pKi is 9.13.

Turning to `NC(=O)[C@@H](Nc1cc2c3c(c1)nc(N1CCCOCC1)n3CCCO2)C1CC1` [Example 180, (S)-2-((1-(1,4-Oxazepan-4-yl)-8,9-dihydro-7H-6-oxa-2,9a-diazabenzo[cd]azulen-4-yl)amino)-2-cyclopropylacetamide], the pKi is 6.18.

With `NC(=O)[C@@H](Nc1cc2c3c(c1)nc(-c1ccc4nc(N)cnc4c1)n3CCCO2)C1CC1` [Example 187, (S)-2-((1-(2-Aminoquinoxalin-6-yl)-8,9-dihydro-7H-6-oxa-2,9a-diazabenzo[cd]azulen-4-yl)amino)-2-cyclopropylacetamide], the pKi was 10.25.

As to `NC(=O)[C@@H](Nc1cc2c3c(c1)nc(-c1ccc4c(c1)NC(=O)CO4)n3CCCO2)C1CC1` [Example 131, (S)-2-Cyclopropyl-2-((1-(3-oxo-3,4-dihydro-2H-benzo[b][1,4]oxazin-6-yl)-8,9-dihydro-7H-6-oxa-2,9a-diazabenzo[cd]azulen-4-yl)amino)acetamide], the pKi is 6.09.

Consider `NC(=O)[C@@H]1[C@@H](F)CCN1c1cc2c3c(c1)nc(-c1ccc4oc(N)nc4c1)n3CCCCO2` [Example 294, (2R,3S)-1-(1-(2-Aminobenzo[d]oxazol-5-yl)-7,8,9,10-tetrahydro-6-oxa-2,10a-diazacycloocta[cd]inden-4-yl)-3-fluoropyrrolidine-2-carboxamide], for which the pKi is greater than 10.70.

With `C[C@@H](Oc1cc2c3c(c1)nc(-c1ccc4nc(N)sc4c1F)n3CCCCO2)C(N)=O` (single isomer, unassigned) [Example 287], the pKi was 8.77.

For `C[C@H](Oc1cc2c3c(c1)nc(-c1ccc(-c4nc[nH]n4)cc1)n3CCCCO2)C(N)=O` [Example 243, (S)-2-((1-(4-(1H-1,2,4-Triazol-3-yl)phenyl)-7,8,9,10-tetrahydro-6-oxa-2,10a-diazacycloocta[cd]inden-4-yl)oxy)propanamide], the pKi is greater than 10.70.

For the compound `NC(=O)[C@@H](Nc1cc2c3c(c1)nc(-c1ccc4oc(=O)[nH]c4c1)n3CCCO2)C1CC1` [Example 196, (S)-2-Cyclopropyl-2-((1-(2-oxo-2,3-dihydrobenzo[d]oxazol-5-yl)-8,9-dihydro-7H-6-oxa-2,9a-diazabenzo[cd]azulen-4-yl)amino)acetamide], the pKi was 6.50.

On to `C[C@H](Oc1cc2c3c(c1)nc(-c1ccc(-c4nc[nH]n4)c(F)c1)n3CCCCO2)C(N)=O` [Example 269, (S)-2-((1-(3-Fluoro-4-(1H-1,2,4-triazol-3-yl)phenyl)-7,8,9,10-tetrahydro-6-oxa-2,10a-diazacycloocta[cd]inden-4-yl)oxy)propanamide], for which the pKi was greater than 10.70.

Turning to `NC(=O)[C@@H](Nc1cc2c3c(c1)nc(N1CCCC(O)C1)n3CCCO2)C1CC1` (stereo partly drawn) [Example 182, (S)-2-Cyclopropyl-2-[1-(3-hydroxypiperidin-1-yl)-8,9-dihydro-7H-6-oxa-2,9a-diazabenzo[cd]azulen-4-ylamino]acetamide], the pKi is 6.40.
